# Results reported in PMC11979947, “Modeling Krebs cycle from liver, heart and hepatoma mitochondria, supported Complex I as target for specific inhibition of cancer cell proliferation” (Frontiers in Oncology, 2025).
# Where two headings read alike, the source gives them in different places.
# Experiments:
# [1] = test system: MCF10A breast non-cancer cells; test: MTT cell proliferation assay, MCF10A; format: cell-based, human; conditions: for IC50: read-out: IC50 on proliferation
# Procedure: (§1) Human cervix cancer HeLa and SiHa, human prostate cancer PC3, human colon cancer colo-205, and rat heart myoblast H9c2 cells (CRL-1446, ATCC, Manassas, VA, USA) were cultured in DMEM medium, while human breast cancer MCF7 cells were cultivated in MEM medium. Human breast epithelial MCF-10A cells (CRL-10317, ATCC, Manassas, VA, USA) were cultivated in F-12/DMEM medium. All media were supplemented with 25 mM glucose, 10% fetal bovine serum (Biowest, Riverside, MO, USA) and 10,000 U streptomycin/penicillin/mL under an atmosphere of 5% CO2 and 95% air at 37°C until 80-90% confluence.
# (§2) The cell lines (20 × 10^3 cells/well) were grown in 96-well plates containing Dulbecco’s Modified Eagle’s Medium (DMEM) (Sigma-Aldrich, St Louis, MO, USA) for 24 h. Afterward, the cells were exposed to rotenone (1 nM to 50 µM) or malonate (0.1µM to 100 mM) for 24 h. Drug effects on cell proliferation were determined by using the 3-(4,5-dimethyl-thiazol-2-yl)-2,5-diphenyltetrazolium bromide (MTT) (Sigma-Aldrich, St Louis, MO, USA) assay. Plates were incubated at 37°C for 3 h; after, the medium was discarded, and the formazan crystals were dissolved with 100 µL DMSO. After 5 min incubation at 37°C, the absorbance was measured at λ 595 nm ([34]).
# [2] = test system: H9c2 heart myoblast cells; test: MTT cell proliferation assay, H9c2; format: cell-based, rat; conditions: read-out: IC50 on proliferation
# Procedure: as §1, §2
# MCF7 breast cancer cells = test: MTT cell proliferation assay, MCF7; format: cell-based, human; conditions: read-out: IC50 on proliferation
# Procedure: as §1, §2
# HeLa cervix cancer cells = test: MTT cell proliferation assay, HeLa; format: cell-based, human; conditions: read-out: IC50 on proliferation
# Procedure: as §1, §2
# [3] = test system: PC3 prostate cancer cells; test: MTT cell proliferation assay, PC3; format: cell-based, human; conditions: read-out: IC50 on proliferation
# Procedure: as §1, §2
# [4] = test system: COLO-205 colon cancer cells; test: MTT cell proliferation assay, COLO-205; format: cell-based, human; conditions: read-out: IC50 on proliferation
# Procedure: as §1, §2
# SiHa cervix cancer cells = test: MTT cell proliferation assay, SiHa; format: cell-based; conditions: Homo sapiens, 24 h, read-out: IC50 on proliferation
# Procedure: as §1, §2
SMILES,"IC50 ([1]; MCF10A, 24 h treatment, MTT)","IC50 ([2]; H9c2, 24 h treatment, MTT)","IC50 (MCF7 breast cancer cells; MCF7, 24 h treatment, MTT)","IC50 (HeLa cervix cancer cells; 24 h treatment, MTT)","IC50 ([3]; PC3, 24 h treatment, MTT)","IC50 ([4]; COLO-205, 24 h treatment, MTT)","IC50 ([1]; Homo sapiens, MCF-10A, 24 h)","Effect on proliferation ([1]; MCF10A, 50 µM, 24 h of treatment)","IC50 ([2]; Rattus norvegicus, H9c2, 24 h)","IC50 (MCF7 breast cancer cells; Homo sapiens, MCF7, 24 h)",IC50 (SiHa cervix cancer cells),"IC50 (HeLa cervix cancer cells; Homo sapiens, 24 h)","IC50 ([3]; Homo sapiens, 24 h)","IC50 ([4]; Homo sapiens, COLO 205, 24 h)"
"O=C(O)CC(=O)O [Malonate, malonate]",43000 ± 9000 µM,25000 ± 5000 µM,41000 ± 1000 µM,27000 ± 5000 µM,40000 ± 2000 µM,32000 ± 3000 µM,,,,,,,,
"C=C(C)[C@H]1Cc2c(ccc3c2O[C@@H]2COc4cc(OC)c(OC)cc4[C@@H]2C3=O)O1 [Rotenone, rotenone]",,,,,,,> 50 µM,not affected,34 ± 10 µM,0.15 ± 0.09 µM,18 ± 3 µM,17 ± 5 µM,13 ± 1 µM,37 ± 9 µM
